From publication PMC4541410 (Scientific Reports, 2015)
Read-outs that look alike come from different tables or passages of the source. Where a SMILES comes first, the peptide text is derived from it.

How the values were obtained:
92TH009 (A/E) = conditions: read-out: IC50 (nM), infection by primary isolate 92TH009 (A/E); primary HIV-1 isolate, subtype A/E
[1] = rat liver homogenate (100 mg wet tissue/2.5 ml PBS pH 7.2, 9,000 g supernatant), peptide 10 μg/ml, 37 °C, LC-MS; triplicate
Protocol: (§1) Chromatographic analyses were performed using an ODS-C8 column (5 μm, 100 mm × 2.0 mm ID) kept at ambient temperature. The mobile phase was composed of acetonitrile-water-formic acid in the ratio of 50:50:0.1 (v/v/v) at a flow rate of 0.3 mL/min. The sample injection volume was 10 μL. Acetonitrile was HPLC grade and other chemical reagents and solvents were analytical grade. A Thermo TSQ Quantum Discovery MAX triple-quadruple tandem mass spectrometer equipped with ESI source (San Jose, CA) and Surveyor LC pump were used for LC-MS analysis. Data acquisition and data processing were performed by using Xcalibur software and LCQuan 2.0 data analysis program (Thermo Finnigan), respectively. Optimized MS parameters were as below: 4800 V spray voltage, 40.0 psi sheath gas pressure, 1.0 psi auxiliary valve flow and 300 °C of capillary temperature. When running collision-induced dissociation (CID), the pressure was set to 1.5 mTorr.
The supernatants were collected.

[2] = test system: T20-resistant HIV-1 variant N42T/N43K; type: cell-based
BCF020 (Group O) = conditions: read-out: IC50 (nM), infection by primary isolate BCF020 (Group O), primary HIV-1 isolate
[3] = test system: HIV-1IIIB (subtype B, X4); assay: Inhibition of HIV-1 IIIB infection by peptides in the presence of sera from HIV-1-infected patients; type: cell-based; conditions: for IC50: MT-2 cells, triplicate, mean ± SD
Protocol: Inhibition of peptides on HIV-1IIIB (subtype B, X4)infection in the presence of HIV-1-infected patients’ sera was determined as previously described. Briefly, each peptide was mixed with serially diluted serum from an HIV-1-infected patient at room temperature for 30 min. Next, the mixture of peptide/serum and HIV-1 (100 TCID50) were added to MT-2 cells (1 × 10^5/ml) in RPMI 1640 medium containing 10% FBS. After incubation at 37 °C overnight, the culture supernatants were replaced with fresh culture medium.

[4] = test system: preexisting antibodies in sera from HIV-1-infected patients; assay: Sandwich ELISA: cross-reactivity of peptides with preexisting antibodies in HIV-1-infected patients; type: binding, human; conditions: peptide coated at 10 μg/ml, serially diluted sera, 37 °C 1 h, A450
Protocol: A sandwich ELISA was conducted to determine the cross-reactivity of the peptides with the preexisting antibodies in HIV-1-infected patients. […] The wells were then blocked with 1% gelatin, followed by addition of 50 μl of serially diluted sera from HIV-1-infected patients and incubation at 37 °C for 1 h. Then, HRP-labeled goat-anti-human IgG (Abcam, UK) and TMB were added sequentially. A450 was determined with an ELISA reader (Ultra 384, Tecan).

in vivo = conditions: male, Sprague-Dawley (SD), rat, plasma, iv, 1 mg/kg
Protocol: Four male SD rats weighing approximately 200 g each were obtained from the Shanghai Medical School Animal Center and were used for the half-life assay. […] After injection, blood samples were acquired from rat orbit at several time points (8 and 30 min and 1.5, 3, 6, 9, 12 and 24 h after peptide injection) and placed in clean tubes. […] Then, HRP-labeled rabbit-anti-mouse IgG (Sigma, USA) and TMB were added in order. Absorbance at 450 nm was determined by an ELISA reader (Ultra 384, Tecan). The standard peptide parameters were obtained first. Then, the plasma peptide concentrations were determined as a function of time and the half-life was calculated by using PK Solver for Microsoft Excel to obtain pharmacokinetic parameters.

[5] = test system: T20-resistant HIV-1 variant V38E/N42S; type: cell-based
93IN101 (C) = conditions: read-out: IC50 (nM), infection by primary isolate 93IN101 (C); primary HIV-1 isolate, subtype C
[6] = test system: HIV-1IIIB (subtype B, X4); conditions: read-out: IC50, inhibition of infection by HIV-1IIIB; MT-2 cells, 100 TCID50, p24 ELISA day 4; triplicate, repeated twice
Description: (§2) Then, the culture supernatants were changed to fresh media. On the fourth day post-infection, culture supernatants were collected for detection of p24 antigen by ELISA. […] Then, the culture supernatants were changed to fresh media. On the fourth day post-infection, the culture supernatants were discarded and fresh media were complemented again. The supernatants were collected on the seventh day post-infection and tested for p24 antigen by ELISA as previously described. The percent inhibition of p24 production was calculated.

HIV-1Bal (subtype B, R5) = conditions: read-out: IC50, inhibition of infection by HIV-1Bal; M7 cells, 100 TCID50, p24 ELISA day 7; triplicate, repeated twice
Description: as §2

[7] = test system: T20-resistant HIV-1 variant V38A; type: cell-based
92UG029 (A) = conditions: read-out: IC50 (nM), infection by primary isolate 92UG029 (A); primary HIV-1 isolate, subtype A
94US_33931N (B) = conditions: read-out: IC50 (nM), infection by primary isolate 94US_33931N (B); primary HIV-1 isolate, subtype B
92UG024 (D) = type: cell-based; conditions: primary HIV-1 isolate, subtype D; read-out: IC50 (nM), infection by primary isolate 92UG024 (D)
proteinase K = assay: in vitro; conditions: proteinase K in PBS, pH 7.2
Protocol: as §1
The peptides (10 μg/mL) were prepared in PBS pH 7.2 containing 20 ng/ml proteinase K. The resulting mixture were incubated at 37 °C in a water bath and taken out at different time intervals (0, 5, 15, 30, 60, 120 minutes), followed by quenching the samples with ethyl alcohol and quantitating the peptides by LC-MS analysis as described above.

NP1525 (A/E) = type: cell-based; conditions: primary HIV-1 isolate, subtype A/E; read-out: IC50 (nM), infection by primary isolate NP1525 (A/E)
[8] = test system: T20-resistant HIV-1 variant V38A/N42D; type: cell-based

Question: For `CC[C@H](C)[C@H](NC(=O)[C@H](CO)NC(=O)[C@H](CCC(=O)O)NC(=O)[C@H](CCC(=O)O)NC(=O)[C@H](CCC(N)=O)NC(=O)[C@H](CCCCN)NC(=O)[C@H](CCCCN)NC(=O)[C@@H](NC(=O)[C@H](CCC(N)=O)NC(=O)[C@H](CCC(=O)O)NC(=O)[C@H](CCC(=O)O)NC(=O)[C@@H](NC(=O)[C@H](CCCCN)NC(=O)[C@H](CCCCN)NC(=O)[C@@H](NC(=O)[C@H](CC(C)C)NC(=O)[C@H](CCC(=O)O)NC(=O)[C@H](CCC(=O)O)NC(=O)[C@H](CO)NC(=O)[C@H](CCCCN)NC(=O)[C@H](CCCCN)NC(=O)[C@@H](NC(=O)[C@H](CC(C)C)NC(=O)[C@H](CCC(=O)O)NC(=O)[C@H](CCC(=O)O)NC(=O)[C@@H](NC(=O)[C@H](CCCCN)NC(=O)[C@H](CCCCN)NC(=O)[C@H](CC(=O)O)NC(=O)[C@H](Cc1c[nH]c2ccccc12)NC(=O)[C@H](CCC(=O)O)NC(=O)[C@H](CCC(=O)O)NC(=O)[C@H](Cc1c[nH]c2ccccc12)NC(=O)[C@@H](NC(=O)[C@H](CCSC)NC(C)=O)[C@@H](C)O)[C@@H](C)CC)[C@@H](C)CC)[C@@H](C)CC)[C@@H](C)CC)[C@@H](C)CC)C(=O)N[C@@H](CCCCN)C(=O)N[C@@H](CCCCN)C(N)=O` [AP3] (Ac-MTWEEWDKKIEELIKKSEELIKKIEEQIKKQEESIKK-NH2), which IC50 (92TH009 (A/E)) is on record?
Answer: 27.8 ± 5.5 nM

Question: What about the “in vitro metabolic stability in liver homogenate” value [1] of the same compound?
Answer: significantly enhanced in vitro metabolic stability over T20

Question: And the IC50 [2]?
Answer: 35.2 ± 12.5 nM

Question: And the IC50 (BCF020 (Group O))?
Answer: 21.9 ± 0.1 nM

Question: What about the “Fold change of IC50, HPS-1” value ([3]; HPS-1 relative to N) of the same compound?
Answer: 0.7

Question: What about the “Fold change of IC50, HPS-2” value ([3]; HPS-2 relative to N) of the same compound?
Answer: 0.2

Question: What about the “Fold change of IC50, HPS-3” value ([3]; HPS-3 relative to N) of the same compound?
Answer: 0.2

Question: What about the “Fold change of IC50, HPS-4” value ([3]; HPS-4 relative to N) of the same compound?
Answer: 0.1

Question: What about the “Fold change of IC50, HPS-5” value ([3]; HPS-5 relative to N) of the same compound?
Answer: 0.2

Question: What about the IC50 ([3]; in presence of serum of HIV-1-infected patient HPS-1, read-out: IC50 (nM), HIV-1 IIIB infection, HPS-1) of the same compound?
Answer: 17.7 ± 4.3 nM

Question: And the IC50 ([3]; in presence of serum of HIV-1-infected patient HPS-2, read-out: IC50 (nM), HIV-1 IIIB infection, HPS-2)?
Answer: 5.1 ± 0.7 nM

Question: What about the IC50 ([3]; in presence of serum of HIV-1-infected patient HPS-3, read-out: IC50 (nM), HIV-1 IIIB infection, HPS-3) of the same compound?
Answer: 4.2 ± 0.4 nM

Question: And the IC50 ([3]; in presence of serum of HIV-1-infected patient HPS-4, read-out: IC50 (nM), HIV-1 IIIB infection, HPS-4)?
Answer: 2 ± 0.6 nM

Question: And the IC50 ([3]; in presence of serum of HIV-1-infected patient HPS-5, read-out: IC50 (nM), HIV-1 IIIB infection, HPS-5)?
Answer: 5.1 ± 0.8 nM

Question: And the “fold longer in vivo elimination half-life than T20” value (AP3 versus T20, SD rat, i.v. 1 mg/kg)?
Answer: about 2.8 fold

Question: What about the Cmax (intravenous 1 mg/kg, male SD rats, n = 2, plasma by sandwich ELISA, PK Solver) of the same compound?
Answer: 289.57 µg/mL

Question: What about the “reactivity with antibodies in sera from five HIV-1-infected patients” value [4] of the same compound?
Answer: none of the three artificial peptides AP1, AP2 and AP3 was recognized

Question: What about the MRT (in vivo) of the same compound?
Answer: 8.69 h

Question: What about the half-life (in vivo) of the same compound?
Answer: 6.02 h

Question: What about the IC50 [5] of the same compound?
Answer: 42.4 ± 11.6 nM

Question: And the IC50 (93IN101 (C))?
Answer: 16.3 ± 1.5 nM

Question: What about the IC50 [6] of the same compound?
Answer: 3.06 nM

Question: What about the IC50 (HIV-1Bal (subtype B, R5)) of the same compound?
Answer: 15.1 nM

Question: And the IC50 [7]?
Answer: 12.6 ± 2.66 nM

Question: What about the IC50 (92UG029 (A)) of the same compound?
Answer: 7.1 ± 1.7 nM

Question: What about the IC50 (94US_33931N (B)) of the same compound?
Answer: 10.2 ± 0.7 nM

Question: What about the IC50 (92UG024 (D)) of the same compound?
Answer: 16.5 ± 0.2 nM

Question: And the remaining at 2 h, 10 μg/mL (proteinase K)?
Answer: 100%

Question: What about the IC50 (NP1525 (A/E)) of the same compound?
Answer: 32.3 ± 8.8 nM

Question: And the IC50 [8]?
Answer: 31.3 ± 6.62 nM
